According to patent US20020137929A1, “1 - (3-heterocyclylphenyl) isothiourea, -isourea, -guanidine and -amidine herbicidal agents” (Intellectual Property Department, BASF Aktiengesellschaft, priority 1998, published 2002):

Assays:
[1] = test system: AMBEL (Ragweed, Common); experiment: Preemergence herbicidal evaluation; type: in vivo, Ambrosia artemisifolia; settings: rated 4-5 weeks after treatment
Method in brief: (§1)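 Greenhouse preemergence test: seed-soil mix sown on ~1 inch soil; aqueous acetone spray at equivalent of ~0.0156–0.500 kg/ha; greenhouse-held and watered; scored 0–9 visually at 4–5 weeks.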

[2] = test system: CYPIR (Rice Flatsedge); experiment: Preemergence weed control under flooded paddy conditions; type: in vivo, Cyperus iria; settings: rated 3-4 weeks after treatment
Method in brief: (§2)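 Silt loam, seeds in top 0.5 cm; flood held 1.5-3 cm; test cpd as acetone/water 50/50 into flood water, ~0.0313-0.500 kg/ha a.i.; greenhouse 3-4 wk; visual 0-9 score vs control.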

[3] = test system: TRZAWR (Wheat, Winter, cv Riband); experiment: Preemergence herbicidal evaluation; type: in vivo, Triticum aestivum; settings: rated 4-5 weeks after treatment
Method in brief: as §1

[4] = test system: IPOHE (Morningglory, Ivyleaf); experiment: Preemergence herbicidal evaluation; type: in vivo, Ipomoea hederacea; settings: rated 4-5 weeks after treatment
Method in brief: as §1

[5] = test system: ZEAMX (Corn, Field); experiment: Preemergence herbicidal evaluation; type: in vivo, Zea mays; settings: rated 4-5 weeks after treatment
Method in brief: as §1

[6] = test system: CHEAL (Lambsquarters, Common); experiment: Preemergence herbicidal evaluation; type: in vivo, Chenopodium album; settings: rated 4-5 weeks after treatment
Method in brief: as §1

[7] = test system: ECHORC (Watergrass (Calif.)); experiment: Postemergence weed control under flooded paddy conditions; type: in vivo, Echinochloa oryzoides; settings: postemergence weeds, 3-4 weeks after treatment
Method in brief: (§3)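 Weeds 3 to 5 cm tall and rice seedlings at the 1.5 to 2.5 leaf stage were flooded, with water held 1.5 to 3 cm above the soil. Compounds in 50/50 v/v aqueous/acetone went into the flood water at about 0.0313 to 0.500 kg/ha. Visual 0-9 ratings versus control were made 3 to 4 weeks later.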

[8] = test system: GALAP (Galium); experiment: Postemergence herbicidal evaluation; type: in vivo, Galium aparine
Method in brief: (§4)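 First, seedlings were raised for around two weeks. Next, test material in 50/50 acetone/water containing 0.5% TWEEN 20 was sprayed through a nozzle at 40 psi, equivalent to about 0.0156–0.500 kg/ha. Finally, after 4–5 weeks in the greenhouse, plants were rated 0–9.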

[9] = test system: CASOB (Sicklepod); experiment: Postemergence herbicidal evaluation; type: in vivo, Cassia obtusifolia
Method in brief: as §4

[10] = test system: CYPSE (Flatsedge); experiment: Postemergence weed control under flooded paddy conditions; type: in vivo, Cyperus serotinus; settings: postemergence weeds, 3-4 weeks after treatment
Method in brief: as §3

[11] = test system: ZEAMX (Corn, Field); experiment: Postemergence herbicidal evaluation; type: in vivo, Zea mays
Method in brief: as §4

[12] = test system: ECHORC (Watergrass (Calif.)); experiment: Preemergence weed control under flooded paddy conditions; type: in vivo, Echinochloa oryzoides; settings: rated 3-4 weeks after treatment
Method in brief: as §2

[13] = test system: CYPSE (Flatsedge); experiment: as above; type: in vivo, Cyperus serotinus; settings: rated 3-4 weeks after treatment
Method in brief: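 Using flooded silt loam (water 1.5 to 3 cm deep), seeds sown in the top 0.5 cm were exposed preemergence to compound pipetted into the flood at about 0.0313 to 0.500 kg/ha. Effects were scored 0-9 by eye three to four weeks later.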

[14] = test system: ORYSAT (Rice, Tebonnet); experiment: Preemergence herbicidal evaluation; type: in vivo, Oryza sativa, (L.) Tebonnet; settings: rated 4-5 weeks after treatment
Method in brief: as §1

COC(=O)CCN1C(=O)CSC1=Nc1cc(-n2c(=O)cc(C(F)(F)F)n(C)c2=O)c(F)cc1Cl [Compound 28, Methyl 2-{{2-chloro-5-[3,6-dihydro-3-methyl-2,6-dioxo-4-(trifluoromethyl)-1(2H)-pyrimidinyl]-4-fluorophenyl}imino}-4-oxo-3-thiazolidinepropionate]
Preemergence herbicidal rating AMBEL ([1]; rate 0.0625 kg/ha): 0.0 | Preemergence herbicidal rating AMBEL ([1]; rate 0.1250 kg/ha): 0.0 | Preemergence herbicidal rating AMBEL ([1]; rate 0.2500 kg/ha): 7.0 | Herbicidal rating CYPIR ([2]; 0.0313 kg/ha): 9.0 | Herbicidal rating CYPIR ([2]; 0.0625 kg/ha): 9.0 | Herbicidal rating CYPIR ([2]; 0.1250 kg/ha): 9.0 | Herbicidal rating CYPIR ([2]; 0.2500 kg/ha): 9.0 | Preemergence herbicidal rating TRZAWR ([3]; rate 0.0625 kg/ha): 0.0 | Preemergence herbicidal rating TRZAWR ([3]; rate 0.2500 kg/ha): 8.0 | Preemergence herbicidal rating IPOHE ([4]; rate 0.0625 kg/ha): 0.0 | Preemergence herbicidal rating IPOHE ([4]; rate 0.1250 kg/ha): 2.0 | Preemergence herbicidal rating IPOHE ([4]; rate 0.2500 kg/ha): 9.0 | Preemergence herbicidal rating ZEAMX ([5]; rate 0.0625 kg/ha): 5.0 | Preemergence herbicidal rating ZEAMX ([5]; rate 0.1250 kg/ha): 9.0 | Preemergence herbicidal rating ZEAMX ([5]; rate 0.2500 kg/ha): 8.0 | Preemergence herbicidal rating CHEAL ([6]; rate 0.0625 kg/ha): 0.0 | Preemergence herbicidal rating CHEAL ([6]; rate 0.1250 kg/ha): 9.0 | Preemergence herbicidal rating CHEAL ([6]; rate 0.2500 kg/ha): 9.0 | Herbicidal rating ECHORC ([7]; rate 0.0313 kg/ha): 0.0 | Herbicidal rating ECHORC ([7]; rate 0.0625 kg/ha): 4.0 | Herbicidal rating ECHORC ([7]; rate 0.1250 kg/ha): 7.0 | Herbicidal rating ECHORC ([7]; rate 0.2500 kg/ha): 9.0 | Postemergence herbicidal rating GALAP ([8]; Rate 0.0158 kg/ha): 3.0 | Postemergence herbicidal rating GALAP ([8]; Rate 0.0315 kg/ha): 7.0 | Postemergence herbicidal rating GALAP ([8]; Rate 0.0630 kg/ha): 8.0 | Postemergence herbicidal rating CASOB ([9]; Rate 0.0158 kg/ha): 1.0 | Postemergence herbicidal rating CASOB ([9]; Rate 0.0315 kg/ha): 1.0 | Postemergence herbicidal rating CASOB ([9]; Rate 0.0630 kg/ha): 4.0 | Herbicidal rating CYPSE ([10]; rate 0.0313 kg/ha): 0.0 | Herbicidal rating CYPSE ([10]; rate 0.0625 kg/ha): 0.0 | Herbicidal rating CYPSE ([10]; rate 0.1250 kg/ha): 0.0 | Herbicidal rating CYPSE ([10]; rate 0.2500 kg/ha): 0.0 | Postemergence herbicidal rating ZEAMX ([11]; Rate 0.0158 kg/ha): 7.5 | Postemergence herbicidal rating ZEAMX ([11]; Rate 0.0315 kg/ha): 7.5 | Postemergence herbicidal rating ZEAMX ([11]; Rate 0.0630 kg/ha): 9.0 | Herbicidal rating ECHORC ([12]; 0.0313 kg/ha): 0.0 | Herbicidal rating ECHORC ([12]; 0.0625 kg/ha): 4.0 | Herbicidal rating ECHORC ([12]; 0.1250 kg/ha): 7.0 | Herbicidal rating ECHORC ([12]; 0.2500 kg/ha): 9.0 | Herbicidal rating CYPSE ([13]; 0.0313 kg/ha): 0.0 | Herbicidal rating CYPSE ([13]; 0.0625 kg/ha): 0.0 | Herbicidal rating CYPSE ([13]; 0.1250 kg/ha): 0.0 | Herbicidal rating CYPSE ([13]; 0.2500 kg/ha): 0.0 | Preemergence herbicidal rating ORYSAT ([14]; rate 0.0625 kg/ha): 0.0 | Preemergence herbicidal rating ORYSAT ([14]; rate 0.1250 kg/ha): 2.0 | Preemergence herbicidal rating ORYSAT ([14]; rate 0.2500 kg/ha): 8.0
